Values of other authors in patent US7595079B2, “Nutritional conjunctive support therapy for recovery in animals following stress or illness” (Bomac Vets Plus, Inc., priority 2005, dated 2009).

Experiments:
[1] = test system: jejunum villus; details: weaning of pigs; target value ≧339
[2] = test system: jejunum crypt; details: malnourished rats; target value ≦150
[3] = test system: small intestinal crypt; details: E. coli induced diarrhea in calves; target value ≦100

For NC(=O)CC[C@H](N)C(=O)O [Glutamine], the “Jejunum Villus Height” value [1] is given as 358 um, the “Jejunum Crypt depth” value [2] is given as 134 um and the “Mid plus Distal small intestinal Crypt width (mean % of baseline control)” value [3] is given as 92.2 mean % of baseline control.
